Reference: patent US9695155B2, “Herbicidal substituted pyrimidinyloxy benzene compounds” (E. I. DU PONT DE NEMOURS AND COMPANY, priority 2013, dated 2017)

Tests used:
barnyardgrass [1] = assay: Test A preemergence; format: in vivo, Echinochloa crus-galli; conditions: for Plant response rating, Barnyardgrass: 125 g ai/ha, 0 to 100 scale where 0 is no effect and 100 is complete control; for Barnyardgrass plant response rating: 500 g ai/ha, 0 to 100 scale, 0 no effect, 100 complete control, approx. 10 days
Summary of the method: (§1)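 Pre- and postemergence greenhouse screen. Soil: loam + sand. Spray carrier: solvent mixture, non-phytotoxic, with surfactant. Post timing at 1–2 leaves, height 2–10 cm. Readout: visual injury on a 0–100 scale roughly 10 days after application, untreated plants as reference.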

large (Lg) crabgrass [2] = assay: Test A preemergence; format: in vivo, Digitaria sanguinalis; conditions: for Plant response rating, Crabgrass, Large: 125 g ai/ha, 0 to 100 scale where 0 is no effect and 100 is complete control; for Crabgrass, Large plant response rating: 500 g ai/ha, 0 to 100 scale, 0 no effect, 100 complete control, approx. 10 days
Summary of the method: as §1

giant foxtail [3] = assay: Test A preemergence; format: in vivo, Setaria faberii; conditions: for Plant response rating, Foxtail, Giant: 125 g ai/ha, 0 to 100 scale where 0 is no effect and 100 is complete control; for Foxtail, Giant plant response rating: 500 g ai/ha, 0 to 100 scale, 0 no effect, 100 complete control, approx. 10 days
Summary of the method: as §1

morningglory [4] = assay: Test A preemergence; format: in vivo, Ipomoea spp.; conditions: for Plant response rating, Morningglory: 125 g ai/ha, 0 to 100 scale where 0 is no effect and 100 is complete control; for Morningglory plant response rating: 500 g ai/ha, 0 to 100 scale, 0 no effect, 100 complete control, approx. 10 days
Summary of the method: as §1

pigweed [5] = assay: Test A preemergence; format: in vivo, Amaranthus retroflexus; conditions: for Plant response rating, Pigweed: 125 g ai/ha, 0 to 100 scale where 0 is no effect and 100 is complete control; for Pigweed plant response rating: 500 g ai/ha, 0 to 100 scale, 0 no effect, 100 complete control, approx. 10 days
Summary of the method: as §1

velvetleaf [6] = assay: Test A preemergence; format: in vivo, Abutilon theophrasti; conditions: for Plant response rating, Velvetleaf: 125 g ai/ha, 0 to 100 scale where 0 is no effect and 100 is complete control; for Velvetleaf plant response rating: 500 g ai/ha, 0 to 100 scale, 0 no effect, 100 complete control, approx. 10 days
Summary of the method: as §1

wheat [7] = assay: Test A preemergence; format: in vivo, Triticum aestivum; conditions: for Plant response rating, Wheat: 125 g ai/ha, 0 to 100 scale where 0 is no effect and 100 is complete control; for Wheat plant response rating: 500 g ai/ha, 0 to 100 scale, 0 no effect, 100 complete control, approx. 10 days
Summary of the method: as §1

corn [8] = assay: Test A preemergence; format: in vivo, Zea mays; conditions: for Plant response rating, Corn: 125 g ai/ha, 0 to 100 scale where 0 is no effect and 100 is complete control; for Corn plant response rating: 500 g ai/ha, 0 to 100 scale, 0 no effect, 100 complete control, approx. 10 days
Summary of the method: as §1

barnyardgrass [9] = assay: Test A postemergence; format: in vivo, Echinochloa crus-galli
Summary of the method: as §1

large (Lg) crabgrass [10] = assay: Test A postemergence; format: in vivo, Digitaria sanguinalis
Summary of the method: as §1

giant foxtail [11] = assay: Test A postemergence; format: in vivo, Setaria faberii; conditions: 0 to 100 scale where 0 is no effect and 100 is complete control
Summary of the method: as §1

morningglory [12] = assay: Test A postemergence; format: in vivo, Ipomoea spp.; conditions: 0 to 100 scale where 0 is no effect and 100 is complete control
Summary of the method: as §1

pigweed [13] = assay: Test A postemergence; format: in vivo, Amaranthus retroflexus; conditions: 0 to 100 scale where 0 is no effect and 100 is complete control
Summary of the method: as §1

velvetleaf [14] = assay: Test A postemergence; format: in vivo, Abutilon theophrasti; conditions: 0 to 100 scale where 0 is no effect and 100 is complete control
Summary of the method: as §1

wheat [15] = assay: Test A postemergence; format: in vivo, Triticum aestivum; conditions: 0 to 100 scale where 0 is no effect and 100 is complete control
Summary of the method: as §1

corn [16] = assay: Test A postemergence; format: in vivo, Zea mays
Summary of the method: as §1

rice = assay: Test B flooded paddy test; format: in vivo, Oryza sativa; conditions: Flood, 250 g ai/ha; 0 to 100 scale where 0 is no effect and 100 is complete control
Summary of the method: (§2)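 2-leaf stage plants; pots flooded to 3 cm, compound added to paddy water, depth maintained. Greenhouse 13–15 d. Visual rating vs untreated controls, 0 (no effect) to 100 (complete control); dash = no result.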

sedge, umbrella = assay: Test B flooded paddy test; format: in vivo, Cyperus difformis; conditions: Flood, 250 g ai/ha; 0 to 100 scale where 0 is no effect and 100 is complete control
Summary of the method: as §2

Heteranthera limosa = assay: Test B flooded paddy test; format: in vivo; conditions: Flood, 250 g ai/ha; 0 to 100 scale where 0 is no effect and 100 is complete control
Summary of the method: as §2

barnyardgrass [17] = assay: Test B flooded paddy test; format: in vivo, Echinochloa crus-galli; conditions: Flood, 250 g ai/ha; 0 to 100 scale where 0 is no effect and 100 is complete control
Summary of the method: as §2

[18] = 125 g ai/ha, 0 to 100 scale where 0 is no effect and 100 is complete control
[19] = 500 g ai/ha, 0 to 100 scale, 0 no effect, 100 complete control
[20] = 500 g ai/ha, 0 to 100 scale where 0 is no effect and 100 is complete control

Row | Compound | Plant response rating, Barnyardgrass (barnyardgrass [1]) | Barnyardgrass plant response rating (barnyardgrass [1]) | Plant response rating, Crabgrass, Large (large (Lg) crabgrass [2]) | Crabgrass, Large plant response rating (large (Lg) crabgrass [2]) | Plant response rating, Foxtail, Giant (giant foxtail [3]) | Foxtail, Giant plant response rating (giant foxtail [3]) | Plant response rating, Morningglory (morningglory [4]) | Morningglory plant response rating (morningglory [4]) | Plant response rating, Pigweed (pigweed [5]) | Pigweed plant response rating (pigweed [5]) | Plant response rating, Velvetleaf (velvetleaf [6]) | Plant response rating, Wheat (wheat [7]) | Plant response rating, Corn (corn [8]) | Corn plant response rating (corn [8]) | Plant response rating, Barnyardgrass (barnyardgrass [9]; [18]) | Plant response rating, Crabgrass, Large (large (Lg) crabgrass [10]; [18]) | Plant response rating, Foxtail, Giant (giant foxtail [11]; 125 g ai/ha) | Plant response rating, Foxtail, Giant (giant foxtail [11]; 500 g ai/ha) | Plant response rating, Morningglory (morningglory [12]; 125 g ai/ha) | Plant response rating, Morningglory (morningglory [12]; 500 g ai/ha) | further results
1 | FC(F)(F)c1cccc(Oc2ncc(Cl)cn2)c1-n1cc(Br)cn1 [Compound 64] | 60 | 100 | 90 | 90 | 90 | 90 | 0 | 20 | 90 | 100 | 40 | 0 | 0 | 70 | 60 | 80 | 80 | 100 | 60 | 80 | Velvetleaf plant response rating (velvetleaf [6]): 90; Wheat plant response rating (wheat [7]): 30; Plant response rating, Barnyardgrass (barnyardgrass [9]; [19]): 100; Plant response rating, Crabgrass, Large (large (Lg) crabgrass [10]; [19]): 100; Plant response rating, Pigweed (pigweed [13]; 125 g ai/ha): 100; Plant response rating, Pigweed (pigweed [13]; 500 g ai/ha): 100; Plant response rating, Velvetleaf (velvetleaf [14]; 125 g ai/ha): 100; Plant response rating, Velvetleaf (velvetleaf [14]; 500 g ai/ha): 100; Plant response rating, Wheat (wheat [15]; 125 g ai/ha): 0; Plant response rating, Wheat (wheat [15]; 500 g ai/ha): 30; Plant response rating, Corn (corn [16]; [18]): 30; Plant response rating, Corn (corn [16]; [19]): 90; Plant response rating, Rice (rice): 0; Plant response rating, Sedge, Umbrella (sedge, umbrella): 80; Plant response rating, Ducksalad (Heteranthera limosa): 70; Plant response rating, Barnyardgrass (barnyardgrass [17]): 0
2 | N#Cc1cccc(Oc2ncc(I)cn2)c1-n1cc(Cl)cn1 [Compound 75] | 20 | 70 | 70 | 100 | 40 | 100 | 20 | 30 | 100 | 100 | 40 | 0 | 0 | 10 | 30 | 20 | 10 | 80 | 50 | 60 | Velvetleaf plant response rating (velvetleaf [6]): 80; Wheat plant response rating (wheat [7]): 0; Plant response rating, Barnyardgrass (barnyardgrass [9]; [19]): 70; Plant response rating, Crabgrass, Large (large (Lg) crabgrass [10]; [19]): 70; Plant response rating, Pigweed (pigweed [13]; 125 g ai/ha): 70; Plant response rating, Pigweed (pigweed [13]; 500 g ai/ha): 100; Plant response rating, Velvetleaf (velvetleaf [14]; 125 g ai/ha): 40; Plant response rating, Velvetleaf (velvetleaf [14]; 500 g ai/ha): 70; Plant response rating, Wheat (wheat [15]; 125 g ai/ha): 0; Plant response rating, Wheat (wheat [15]; 500 g ai/ha): 0; Plant response rating, Corn (corn [16]; [18]): 0; Plant response rating, Corn (corn [16]; [19]): 40; Plant response rating, Rice (rice): 0; Plant response rating, Sedge, Umbrella (sedge, umbrella): 50; Plant response rating, Ducksalad (Heteranthera limosa): 60; Plant response rating, Barnyardgrass (barnyardgrass [17]): 0
3 | O=Cc1cccc(Oc2ncc(F)cn2)c1-n1cc(Cl)cn1 [Compound 93] | 0 | 0 | 0 | 30 | 0 | 0 | 0 | 0 | 0 | 30 | 0 | 0 | 0 | 0 | 0 | 0 | 0 | 0 | 0 | 0 | Plant response rating, Barnyardgrass (barnyardgrass [9]; [20]): 0; Plant response rating, Crabgrass, Large (large (Lg) crabgrass [10]; [20]): 0; Plant response rating, Pigweed (pigweed [13]; 125 g ai/ha): 0; Plant response rating, Pigweed (pigweed [13]; 500 g ai/ha): 0; Plant response rating, Velvetleaf (velvetleaf [14]; 125 g ai/ha): 0; Plant response rating, Velvetleaf (velvetleaf [14]; 500 g ai/ha): 0; Plant response rating, Wheat (wheat [15]; 125 g ai/ha): 0; Plant response rating, Wheat (wheat [15]; 500 g ai/ha): 0; Plant response rating, Corn (corn [16]; [18]): 0; Plant response rating, Corn (corn [16]; [20]): 0; Plant response rating, Rice (rice): 0; Plant response rating, Sedge, Umbrella (sedge, umbrella): 0; Plant response rating, Ducksalad (Heteranthera limosa): 0; Plant response rating, Barnyardgrass (barnyardgrass [17]): 0
4 | CC(=O)c1cccc(Oc2ncc(Cl)cn2)c1-n1cc(Br)cn1 [Compound 96] | 0 | 30 | 30 | 90 | 10 | 60 | 0 | 0 | 50 | 100 | 0 | 0 | 0 | 0 | 10 | 10 | 0 | 20 | 0 | 10 | Plant response rating, Barnyardgrass (barnyardgrass [9]; [20]): 30; Plant response rating, Crabgrass, Large (large (Lg) crabgrass [10]; [20]): 30; Plant response rating, Pigweed (pigweed [13]; 125 g ai/ha): 10; Plant response rating, Pigweed (pigweed [13]; 500 g ai/ha): 40; Plant response rating, Velvetleaf (velvetleaf [14]; 125 g ai/ha): 0; Plant response rating, Velvetleaf (velvetleaf [14]; 500 g ai/ha): 10; Plant response rating, Wheat (wheat [15]; 125 g ai/ha): 0; Plant response rating, Wheat (wheat [15]; 500 g ai/ha): 0; Plant response rating, Corn (corn [16]; [18]): 0; Plant response rating, Corn (corn [16]; [20]): 10; Plant response rating, Rice (rice): 0; Plant response rating, Sedge, Umbrella (sedge, umbrella): 0; Plant response rating, Ducksalad (Heteranthera limosa): 0; Plant response rating, Barnyardgrass (barnyardgrass [17]): 0
